Assay results: PubChem BioAssay (NCI)
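GI50 = concentration required for 50% inhibition of growth. TGI: concentration producing complete growth inhibition.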

Tests used:
Assay in all cases: growth of human tumour cells (NCI), 384-well format
[1] = system: IGROV1 ovarian
[2] = system: RPMI-8226 leukemia
[3] = system: SNB-75 CNS
[4] = system: NCI-H23 lung
[5] = system: K-562 leukemia
[6] = system: HT29 colon
[7] = system: PC-3 prostate
[8] = system: CAKI-1 renal
[9] = system: EKVX NSCLC
[10] = system: MCF7 breast
[11] = system: UACC-257 melanoma
[12] = system: LOX IMVI melanoma
[13] = system: SF-268 CNS
[14] = system: COLO 205 colon
[15] = system: SW-620 colon
[16] = system: U251 glioblastoma
[17] = system: 786-0 renal
[18] = system: RXF 393 renal
[19] = system: MDA-MB-231 breast
[20] = system: NCI-H226 lung
[21] = system: SK-OV-3 ovarian
[22] = system: HCT-15 colon
[23] = system: NCI-H322M lung
[24] = system: SF-295 CNS
[25] = system: SF-539 CNS
[26] = system: MALME-3M melanoma
[27] = system: SN12C renal
[28] = system: HS 578T breast
[29] = system: CCRF-CEM leukemia
[30] = system: OVCAR-5 ovarian
[31] = system: SK-MEL-28 melanoma
[32] = system: HCT-116 colon
[33] = system: HOP-92 NSCLC
[34] = system: HL-60(TB) leukemia
[35] = system: MOLT-4 leukemia
[36] = system: KM12 colon
[37] = system: ACHN renal
[38] = system: T-47D breast
[39] = system: NCI/ADR-RES ovarian
[40] = system: MDA-MB-435 melanoma
[41] = system: MDA-MB-468 breast
[42] = system: TK-10 renal
[43] = system: M14 melanoma
[44] = system: SK-MEL-5 melanoma
[45] = system: UACC-62 melanoma
[46] = system: HCC-2998 colon
[47] = system: BT-549 breast
[48] = system: OVCAR-3 ovarian
[49] = system: NCI-H460 NSCLC
[50] = system: SK-MEL-2 melanoma
[51] = system: SR leukemia
[52] = system: HOP-62 NSCLC
[53] = system: A549 NSCLC
[54] = system: SNB-19 CNS
[55] = system: A498 renal
[56] = system: DU-145 prostate
[57] = system: OVCAR-4 ovarian
[58] = system: NCI-H522 lung

`CC(C)[C@H](O)C(=O)N[C@@H](C)C(=O)N[C@@H]1C(=O)N(C)CCc2ccccc21` was tested, and the GI50 [1] was > 100 µM, the TGI [1] was > 100 µM and the GI50 [2] was > 100 µM. For the same molecule, the TGI [2] was > 100 µM, the GI50 [3] was > 100 µM and the TGI [3] was > 100 µM. The GI50 [4] was > 100 µM, the TGI [4] was > 100 µM and the GI50 [5] was > 100 µM. The TGI [5] was > 100 µM, the GI50 [6] was > 100 µM and the TGI [6] was > 100 µM. The GI50 [7] was > 100 µM, the TGI [7] was > 100 µM and the GI50 [8] was > 100 µM. The TGI [8] was > 100 µM, the GI50 [9] was > 100 µM and the TGI [9] was > 100 µM. For the same molecule, the GI50 [10] was > 100 µM, the TGI [10] was > 100 µM and the GI50 [11] was > 100 µM. The TGI [11] was > 100 µM, the GI50 [12] was > 100 µM and the TGI [12] was > 100 µM. The GI50 [13] was > 100 µM, the TGI [13] was > 100 µM and the GI50 [14] was > 100 µM. For the same molecule, the TGI [14] was > 100 µM, the GI50 [15] was > 100 µM and the TGI [15] was > 100 µM. The GI50 [16] was > 100 µM, the TGI [16] was > 100 µM and the GI50 [17] was > 100 µM. The TGI [17] was > 100 µM, the GI50 [18] was > 100 µM and the TGI [18] was > 100 µM. For the same molecule, the GI50 [19] was > 100 µM, the TGI [19] was > 100 µM and the GI50 [20] was > 100 µM. For the same molecule, the TGI [20] was > 100 µM, the GI50 [21] was > 100 µM and the TGI [21] was > 100 µM. The GI50 [22] was > 100 µM, the TGI [22] was > 100 µM and the GI50 [23] was > 100 µM. For the same molecule, the TGI [23] was > 100 µM, the GI50 [24] was > 100 µM and the TGI [24] was > 100 µM. The GI50 [25] was > 100 µM, the TGI [25] was > 100 µM and the GI50 [26] was > 100 µM. For the same molecule, the TGI [26] was > 100 µM, the GI50 [27] was > 100 µM and the TGI [27] was > 100 µM. For the same molecule, the GI50 [28] was > 100 µM, the TGI [28] was > 100 µM and the GI50 [29] was > 100 µM. For the same molecule, the TGI [29] was > 100 µM, the GI50 [30] was > 100 µM and the TGI [30] was > 100 µM. The GI50 [31] was > 100 µM, the TGI [31] was > 100 µM and the GI50 [32] was > 100 µM. For the same molecule, the TGI [32] was > 100 µM, the GI50 [33] was > 100 µM and the TGI [33] was > 100 µM. For the same molecule, the GI50 [34] was > 100 µM, the TGI [34] was > 100 µM and the GI50 [35] was > 100 µM. For the same molecule, the TGI [35] was > 100 µM, the GI50 [36] was > 100 µM and the TGI [36] was > 100 µM. For the same molecule, the GI50 [37] was > 100 µM, the TGI [37] was > 100 µM and the GI50 [38] was > 100 µM. For the same molecule, the TGI [38] was > 100 µM, the GI50 [39] was > 100 µM and the TGI [39] was > 100 µM. For the same molecule, the GI50 [40] was > 100 µM, the TGI [40] was > 100 µM and the GI50 [41] was > 100 µM. For the same molecule, the TGI [41] was > 100 µM, the GI50 [42] was > 100 µM and the TGI [42] was > 100 µM. For the same molecule, the GI50 [43] was > 100 µM, the TGI [43] was > 100 µM and the GI50 [44] was > 100 µM. The TGI [44] was > 100 µM, the GI50 [45] was > 100 µM and the TGI [45] was > 100 µM. The GI50 [46] was > 100 µM, the TGI [46] was > 100 µM and the GI50 [47] was > 100 µM. For the same molecule, the TGI [47] was > 100 µM, the GI50 [48] was > 100 µM and the TGI [48] was > 100 µM. The GI50 [49] was > 100 µM, the TGI [49] was > 100 µM and the GI50 [50] was > 100 µM. The TGI [50] was > 100 µM, the GI50 [51] was > 100 µM and the TGI [51] was > 100 µM. For the same molecule, the GI50 [52] was > 100 µM, the TGI [52] was > 100 µM and the GI50 [53] was > 100 µM. The TGI [53] was > 100 µM, the GI50 [54] was > 100 µM and the TGI [54] was > 100 µM. The GI50 [55] was > 100 µM, the TGI [55] was > 100 µM and the GI50 [56] was > 100 µM. For the same molecule, the TGI [56] was > 100 µM, the GI50 [57] was > 100 µM and the TGI [57] was > 100 µM. For the same molecule, the GI50 [58] was > 100 µM and the TGI [58] was > 100 µM.
